{"source": "patent US20110008461A1", "about": "(priority 2008, published 2011)", "key": {"[1]": {"molecular_target": "T1, Rat Liver Cytosolic Phosphoenolpyruvate Carboxykinase (Rattus norvegicus, UniProt P07379)", "T1 sequence (P07379 1-622)": "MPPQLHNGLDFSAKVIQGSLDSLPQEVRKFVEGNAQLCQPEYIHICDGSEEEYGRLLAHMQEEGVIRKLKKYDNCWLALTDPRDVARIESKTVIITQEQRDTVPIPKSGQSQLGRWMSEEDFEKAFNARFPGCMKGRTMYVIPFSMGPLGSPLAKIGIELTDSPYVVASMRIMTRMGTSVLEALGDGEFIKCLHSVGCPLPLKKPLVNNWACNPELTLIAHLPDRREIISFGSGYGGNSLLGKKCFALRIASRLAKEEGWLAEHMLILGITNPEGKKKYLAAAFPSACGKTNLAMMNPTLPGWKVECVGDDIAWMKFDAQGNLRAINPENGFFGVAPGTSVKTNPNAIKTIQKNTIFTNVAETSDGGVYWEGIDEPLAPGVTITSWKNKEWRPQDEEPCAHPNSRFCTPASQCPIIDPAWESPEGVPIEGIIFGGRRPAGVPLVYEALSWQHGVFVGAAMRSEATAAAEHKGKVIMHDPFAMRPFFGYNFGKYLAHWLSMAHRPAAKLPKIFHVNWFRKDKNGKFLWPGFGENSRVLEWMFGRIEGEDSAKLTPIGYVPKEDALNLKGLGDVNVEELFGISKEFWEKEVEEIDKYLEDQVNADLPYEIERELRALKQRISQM", "experiment": "Continuous spectrophotometric PEPCK inhibition assay coupled to malate dehydrogenase (preliminary screen, inhibition patterns, Dixon plots);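 also: PEPCK activity followed continuously via malate dehydrogenase coupling, where OAA reduction consumes NADH, seen as falling absorbance at 340 nm, run at 35 °C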", "conditions": "for Inhibition of PEPCK (in words): against PEP", "description": "TES (pH 7.2), 7.5% glycerol (v:v), 0.2 mM EDTA.\nThe inhibition of PEPCK by various compounds was evaluated using a continuous spectrophotometric assay in which the coupling enzyme, malate dehydrogenase, reduced OAA to malate concomitant with the oxidation of NADH to NAD^+. The decrease in absorbance at 340 nm was monitored using a Beckman DU-70 Spectrophotometer equipped with a temperature controller. The standard 1-mL reaction mixture for the production of OAA contained 56 mM HEPES-KOH buffer (pH 7.0), 1 mM IDP (or alternatively, 0.1 mM GDP), 23 U malate dehydrogenase (1 unit of malate dehydrogenase is defined as 1 mole malate produced/min/mg protein), 0.25 mM NADH, 2.3 mM MnCl2, and 48 mM NaHCO3. […] All assay components except PEPCK were preincubated in the cuvette for 3 min at 35° C., the standard assay temperature.\nThe kinetic parameters for the inhibition studies were best fit to the equations for competitive inhibition (Eq. 1) and noncompetitive inhibition (Eq. 2), using the computer program and nomenclature of Cleland (Cleland, W. W. (1979) Statistical analysis of enzyme kinetic data. Methods Enzymol 63, 103-138).\nv=VA/[K(1+1/Kis)+A] (Eq. 1)\nv=VA/[K(1/Kis)+A(1+1/Kii)] (Eq. 2)\nThe parameters are defined as follows: v is the initial velocity, V is the maximal rate of product formation in the absence of inhibitor, A is the concentration of the variable substrate, K is the apparent Michaelis constant for the varied substrate, and Kis and Kii are the inhibition constants."}, "PEPCK [2]": {"molecular_target": "T2, PEPCK (Rattus norvegicus, UniProt P07379)", "T2 sequence (P07379 1-622)": "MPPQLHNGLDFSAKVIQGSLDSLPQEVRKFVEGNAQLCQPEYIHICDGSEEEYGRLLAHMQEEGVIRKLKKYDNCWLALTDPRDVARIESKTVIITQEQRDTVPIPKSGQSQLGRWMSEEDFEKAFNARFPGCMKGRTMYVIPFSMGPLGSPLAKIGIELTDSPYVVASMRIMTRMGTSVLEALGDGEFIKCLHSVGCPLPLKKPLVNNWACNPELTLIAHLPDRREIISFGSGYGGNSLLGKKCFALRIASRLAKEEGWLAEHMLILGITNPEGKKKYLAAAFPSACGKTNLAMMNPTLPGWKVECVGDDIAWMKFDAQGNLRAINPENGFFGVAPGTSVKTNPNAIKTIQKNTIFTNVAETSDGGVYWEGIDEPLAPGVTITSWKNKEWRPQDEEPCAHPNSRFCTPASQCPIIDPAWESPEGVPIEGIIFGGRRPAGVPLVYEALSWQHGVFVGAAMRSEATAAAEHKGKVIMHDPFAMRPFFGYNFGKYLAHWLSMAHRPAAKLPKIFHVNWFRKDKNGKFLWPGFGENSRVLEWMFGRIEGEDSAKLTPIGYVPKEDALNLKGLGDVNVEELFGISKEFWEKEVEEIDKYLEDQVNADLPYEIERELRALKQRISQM", "experiment": "Kinetic analysis of CMMP inhibition of PEPCK against PEP (FIG. 5)", "format": "biochemical", "text": "The ‘I’ values given in the legend are the concentrations of CMMP used in uM.\nThis was originally supported by the inhibition of PEPCK by sulfoacetate. […] Based upon that work, we proposed a novel scaffold to be utilized in the development of molecules that bridge these two sub-sites with and in doing so would gain potency and, perhaps more importantly with a metabolic enzyme like PEPCK, specificity. This scaffold is Formulas C, E, and/or G and an example is CMMP. […] This molecule thereby gains both potency and specificity for PEPCK. […] The information obtained from FIGS. 4 and 5 indicate that derivatives of CMMP, as shown by the scaffolds of Formulas E and G, are likely to be similarly effective as CMMP."}, "cytosolic PEPCK": {"molecular_target": "T3, cytosolic PEPCK (Rattus norvegicus, UniProt P07379)", "T3 sequence (P07379 1-622)": "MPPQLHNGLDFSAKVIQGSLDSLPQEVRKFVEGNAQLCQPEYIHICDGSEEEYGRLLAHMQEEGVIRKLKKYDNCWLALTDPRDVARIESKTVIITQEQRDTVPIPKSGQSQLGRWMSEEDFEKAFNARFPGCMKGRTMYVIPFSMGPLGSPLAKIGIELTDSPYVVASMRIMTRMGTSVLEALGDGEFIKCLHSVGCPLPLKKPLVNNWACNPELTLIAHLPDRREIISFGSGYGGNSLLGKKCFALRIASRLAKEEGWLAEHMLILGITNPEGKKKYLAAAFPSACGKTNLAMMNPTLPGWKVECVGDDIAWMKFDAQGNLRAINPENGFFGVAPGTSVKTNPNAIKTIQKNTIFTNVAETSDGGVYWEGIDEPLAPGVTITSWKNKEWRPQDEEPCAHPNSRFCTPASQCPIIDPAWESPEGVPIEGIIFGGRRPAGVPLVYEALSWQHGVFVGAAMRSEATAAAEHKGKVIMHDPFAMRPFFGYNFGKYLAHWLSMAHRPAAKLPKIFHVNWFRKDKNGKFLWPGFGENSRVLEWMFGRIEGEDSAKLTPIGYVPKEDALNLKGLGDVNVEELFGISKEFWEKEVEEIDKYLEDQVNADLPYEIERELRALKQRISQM", "experiment": "Kinetic data for MPA binding to the allosteric site of PEPCK", "format": "biochemical"}, "PEPCK [3]": {"molecular_target": "PEPCK", "conditions": "cited from earlier work"}, "[4]": {"conditions": "analogue 3 mM, PEP 40 μM, preliminary screen, average of two PEPCK preparations"}, "[5]": {"conditions": "analogue 6 mM, PEP 40 μM, preliminary screen, average of two PEPCK preparations"}, "[6]": {"conditions": "from Dixon plots using two PEP concentrations"}, "[7]": {"conditions": "PEP varied substrate, Cleland kinetics program, 35° C., pH 7.0"}}, "note": "Values joined by “and” are separate entries in the source; they are usually repeats but may differ in a detail not shown here. Equal entries are not always repeated. Structures can show the parent of a compound that is named as a salt. Where two headings read alike, the source gives them in different places. Marks after values point to notes of the source that are not given here."}
{"molecule": "N[C@@H](CS(=O)O)C(=O)O", "note": "[Compound 27, Cysteine sulfinic acid]", "values": [{"measurement": "Inhibition of PEPCK (in words)", "setting": "[1]", "result": "does not cause inhibition"}, {"measurement": "% Activity Remaining", "setting": "[1]; [4]", "result": "105^c %"}]}
{"molecule": "O=C(O)CSc1cccnc1C(=O)O", "note": "[CMMP, 3-carboxymethylmercaptopicolinic acid]", "values": [{"measurement": "Ki", "setting": "PEPCK [2]", "result": 12, "unit": "µM"}, {"measurement": "Pattern of Inhibition", "setting": "PEPCK [2]; against PEP", "result": "competitive"}]}
{"molecule": "Phenylphosphate [Compound 34]", "values": [{"measurement": "% Activity Remaining", "setting": "[1]; [4]", "result": "96^c %"}]}
{"molecule": "O=C(O)[C@@H](CO)OP(=O)(O)O", "note": "[Compound 14, 2-D-Phosphoglycerate]", "values": [{"measurement": "Inhibition of PEPCK (in words)", "setting": "[1]", "result": "noninhibitory"}, {"measurement": "% Activity Remaining", "setting": "[1]; [4]", "result": "110^c %"}]}
{"molecule": "O=C(O)c1ncccc1S", "note": "[MPA, 3-mercaptopicolinic acid]", "values": [{"measurement": "Ki", "setting": "cytosolic PEPCK; read-out: apparent affinity", "result": "~100", "unit": "µM"}, {"measurement": "Pattern of Inhibition", "setting": "cytosolic PEPCK; versus nucleotide", "result": "competitive with nucleotide binding"}]}
{"molecule": "N[C@@H](CS(=O)(=O)O)C(=O)O", "note": "[Compound 26, Cysteic acid]", "values": [{"measurement": "Inhibition of PEPCK (in words)", "setting": "[1]", "result": "even less inhibitory"}, {"measurement": "% Activity Remaining", "setting": "[1]; [4]", "result": "76^c %"}]}
{"molecule": "O=C(O)CC(C(=O)O)S(=O)(=O)O", "note": "(stereo not shown) [Compound 4, Sulfosuccinate]", "values": [{"measurement": "% Activity Remaining", "setting": "[1]", "result": "55^c %"}, {"measurement": "Ki", "setting": "[1]", "result": "~3300 µM and 3300 µM"}]}
{"molecule": "O=C(O)C(=O)O", "note": "[Compound 1, Oxalate]", "values": [{"measurement": "Ki", "setting": "PEPCK [3]", "result": "5 to 89", "unit": "µM"}]}
{"molecule": "O=S(=O)(O)CCS(=O)(=O)O", "note": "[Compound 32, 1,2-Ethanedisulfonate]", "values": [{"measurement": "% Activity Remaining", "setting": "[1]; [5]", "result": "42^e %"}, {"measurement": "Ki", "setting": "[1]; [6]", "result": "~3000", "unit": "µM"}, {"measurement": "Ki", "setting": "[1]; from Dixon plots using two PEP concentrations, listed as 1,2-Ethanedisulfonate (32)", "result": 3000, "unit": "µM"}]}
{"molecule": "NC(CCCP(=O)(O)O)C(=O)O", "note": "(stereo not shown) [Compound 20, 2-Amino-5-phosphonovalerate]", "values": [{"measurement": "% Activity Remaining", "setting": "[1]", "result": "98^f %"}]}
{"molecule": "O=C(O)/C=C\\C(=O)O", "note": "[Compound 5, Maleate]", "values": [{"measurement": "% Activity Remaining", "setting": "[1]; [5]", "result": "52^e %"}, {"measurement": "Ki", "setting": "[1]; [6]", "result": "~2000", "unit": "µM"}, {"measurement": "Ki", "setting": "[1]; from Dixon plots using two PEP concentrations, listed as Maleate (5)", "result": 2000, "unit": "µM"}]}
{"molecule": "O=C(O)CC(=O)O", "note": "[Compound 2, Malonate]", "values": [{"measurement": "% Activity Remaining", "setting": "[1]; [4]", "result": "102^c %"}]}
{"molecule": "O=C(O)CCS(=O)(=O)O", "note": "[Compound 25, 3-Sulfopropionate]", "values": [{"measurement": "Pattern of Inhibition", "setting": "[1]; PEP varied substrate", "result": "Competitive"}, {"measurement": "Ki", "setting": "[1]; [7]", "result": "3400 ± 300", "unit": "µM"}, {"measurement": "Inhibition of PEPCK (in words)", "setting": "[1]", "result": "poor inhibitor"}, {"measurement": "% Activity Remaining", "setting": "[1]; [4]", "result": "69^c %"}]}
{"molecule": "O=P(O)(O)CCP(=O)(O)O", "note": "[Compound 30, 1,2-Ethanediphosphonate]", "values": [{"measurement": "Pattern of Inhibition", "setting": "[1]; PEP varied substrate", "result": "competitive"}, {"measurement": "Ki", "setting": "[1]; [7]", "result": 5100, "unit": "µM"}, {"measurement": "Pattern of Inhibition", "setting": "[1]; PEP varied substrate, listed as 1,2-Ethanediphosphonate (30)", "result": "Competitive"}, {"measurement": "% Activity Remaining", "setting": "[1]; [5]", "result": "96^e %"}]}
{"molecule": "CC(C)(C(=O)O)S(=O)(=O)O", "note": "[Compound 24, 2,2-Dimethylsulfoacetate]", "values": [{"measurement": "Ki relative to sulfoacetate", "setting": "[1]", "result": 25, "unit": "fold"}, {"measurement": "Pattern of Inhibition", "setting": "[1]", "result": "Competitive"}, {"measurement": "% Activity Remaining", "setting": "[1]; [4]", "result": "65^c %"}, {"measurement": "Ki", "setting": "[1]; pH 7", "result": "2100 ± 200", "unit": "µM"}]}
{"molecule": "O=C(O)[C@H](O)[C@@H](O)[C@H](O)[C@H](O)COP(=O)(O)O", "note": "[Compound 16, 6-phosphogluconate]", "values": [{"measurement": "Inhibition of PEPCK (in words)", "setting": "[1]", "result": "does not inhibit"}, {"measurement": "% Activity Remaining", "setting": "[1]; [4]", "result": "117^c %"}]}
{"molecule": "N[C@@H](CC(=O)O)C(=O)O", "note": "[Compound 9, L-Aspartate]", "values": [{"measurement": "% Activity Remaining", "setting": "[1]; [4]", "result": "112^c %"}]}
